{"source": "patent US20090215725A1", "about": "“Substituted 4-aminocyclohexane derivatives” (GRUNENTHAL GMBH, priority 2008, published 2009)", "test_system": "Male Sprague Dawley rats", "experiment": "Chung model: mononeuropathic pain after spinal nerve ligation (mechanical allodynia, von Frey withdrawal threshold)", "type": "in vivo", "details": "rat, FIG. 1", "data": [{"smiles": "CN(C)C1(c2ccccc2)CCC(COCc2c[nH]c3ccc(F)cc23)CC1", "note": "(stereo not drawn) [Example 10, 1-Phenyl-4-(((5-fluoro-1H-indol-3-yl)methoxy)methyl)-N,N-dimethylcyclohexanamine]", "values": [{"measurement": "effect on the undamaged, contralateral side", "setting": "contralateral rear paw, tested dose", "value": "only a very small and statistically insignificant effect"}, {"measurement": "rise in the withdrawal threshold", "setting": "ipsilateral rear paw, spinal nerve ligation, allodynia fall from approx. 55 g to 25 g", "value": "over 40 g"}, {"measurement": "allodynia condition (effectiveness in neuropathic pain)", "setting": "ipsilateral side, spinal nerve ligation", "value": "almost completely relieved"}]}]}
